In EP0433683A2, “Use of benzothiazepines as potentiators of anti-cancer drugs” (MARION MERRELL DOW INC., priority 1989, dated 1991):
Structures can show the parent of a compound that is named as a salt.

Columns and labels:
[1] = Anticonvulsant activity (AcA), method of Zobrist et al.; type: in vivo; design: key: 0 being no observed activity; 5 being the most active; conditions: scale from 0 to 5
Experimental: Anticonvulsant activity (AcA) was determined generally by the method of Zobrist et al., European Patent Application EP.... (our ref.: A 634 EP) entitled, "BENZOTHZAZEPINE ANTI-SEIZURE METHOD," and filed on even date herewith; see also US-A-4,879,289.

[2] = Anti-depressant activity (AdA), visual observation; type: in vivo; conditions: scale from 0 to 5
Experimental: Anti-depressant activity (AdA) was determined by visual observation.

[3] = Cardiovascular activity (CvA), isolated tissue; conditions: scale from 0 to 5
Experimental: Cardovascular activity (CvA) was determined by the use of isolated tissue.

VCR-resistant cell line = conditions: nontoxic concentration of diltiazem hydrochloride; cited from earlier work

| SMILES | AcA [1] | AdA [2] | CvA [3] | increase in vincristine (VCR) cytotoxicity (VCR-resistant cell line) [fold] |
| --- | --- | --- | --- | --- |
| COc1ccc([C@@H]2Sc3ccccc3N(CCN(C)C)C(=O)[C@@H]2OC(C)=O)cc1 [Diltiazem, d-cis-5-[2-(dimethylamino)ethyl]-2,3-dihydro-3-hydroxy-2-(4-methoxyphenyl)-1,5-benzothiazepin-4(5H)-one acetate (ester), reference compound] | 5 | 2 |  |  |
| CCCCC(=O)O[C@H]1C(=O)N(CCN(C)C)c2ccccc2S[C@H]1c1ccc(OC)cc1.O=C(O)/C=C/C(=O)O [d-cis-ML1013] | 0 |  | 1 |  |
| COc1ccc([C@@H]2Sc3ccccc3N(CCN(C)C)C(=O)[C@@H]2OC(=O)CC(C)C)cc1.O=C(O)/C=C/C(=O)O [d-cis-ML1014] | 1 |  | 1 |  |
| COc1ccc([C@@H]2Sc3ccccc3N(CCN(C(C)C)C(C)C)C(=O)[C@@H]2OC(C)=O)cc1.Cl [d-cis-ML1016] | 5 | 1 | 2 |  |
| COc1ccc([C@@H]2Sc3ccccc3N(CCN(C)C)C(=O)[C@@H]2OC(C)=O)cc1 [diltiazem hydrochloride, Diltiazem hydrochloride] |  |  |  | 54 |
| COc1ccc([C@H]2Sc3ccccc3N(CCN(C)C)C(=O)[C@H]2OC(C)=O)cc1 [l-cis-DTZ] | 3 |  |  |  |
